Source: EP4527828A1, “BIPHENYL COMPOUND, PHARMACEUTICAL COMPOSITION, METHOD FOR PREPARING SAME, AND USE THEREOF” (Longivitron (Suzhou) Biotechnology Co., Ltd, priority 2022, dated 2023)
pIC50: −log10 of the molar value. Where two headings read alike, the source gives them in different places.

Columns and labels:
[1] = test system: mouse liver cancer HEPA1-6; format: in vivo; settings: 27 days
Procedure: (1) 32 8-week-old female C57L mice were selected and divided into 5 cages. HEPA1-6 cells cultured with DMEM + 10% FBS in vitro were washed with PBS and digested with 0.25% trypsin for 3 min. The digestion was terminated with a serum-containing medium, the cells were centrifuged at 2500 rpm for 5 min, the supernatant was discarded, and the cells were resuspended with an appropriate amount of PBS twice. The number of cells was 1.14 × 10^7 cells/mL as counted with a BioRad counting instrument. The cell suspension was placed in an Erlenmeyer flask in an ice bath for later use. The tumor fluid was evenly aspirated using a 1 mL sterile syringe and inoculated 0.2 mL/mouse. After the inoculation was completed, the mice continued to be fed under the initial feeding conditions.
(2) Animal grouping: On the second day after tumor fluid inoculation of C57B/L mice, 32 mice were randomly grouped: 8 mice in a control group, 6 mice in a Compound 4-5 mg/kg group, 6 mice in a Compound 4-10 mg/kg group, 6 mice in a Compound 4-20 mg/kg group, and 6 mice in a positive control drug cyclophosphamide (CTX)-100 mg/kg group. The drug test groups were given the drugs to be tested orally once a day, and the positive control drug CTX was injected intraperitoneally once. The mice were weighed and administered daily.
(3) Drug preparation: The corresponding amounts of the drugs to be tested were weighed according to the final concentrations of the experimental groups. The drugs of the Compound 4-5 mg/kg group, the Compound 4-10 mg/kg group, and the Compound 4-20 mg/kg group were prepared with 5% CMCNa + Tween 80, and CTX was prepared with normal saline. The mice in the control group were given 5% CMCNa solution orally. The dosages were as follows: 0.4 mL/20 g body weight of the animal for intragastric administration, and 0.2 mL/20 g body weight of the animal for intraperitoneal injection.
(4) The animals were sacrificed, and the tumors were separated and weighed. The animals in each group were treated immediately 1 h after administration on the last day and weighed, and the tumor tissue was separated and weighed.

[2] = target: T1, LAG3/FGL1 (Homo sapiens, UniProt P18627); assay: HTRF binding inhibition of LAG3 and its ligand FGL1; settings: Table 2; read-out: IC50 value for inhibiting LAG3/FGL1 interaction
T1 sequence (P18627 23-450 limits assumed): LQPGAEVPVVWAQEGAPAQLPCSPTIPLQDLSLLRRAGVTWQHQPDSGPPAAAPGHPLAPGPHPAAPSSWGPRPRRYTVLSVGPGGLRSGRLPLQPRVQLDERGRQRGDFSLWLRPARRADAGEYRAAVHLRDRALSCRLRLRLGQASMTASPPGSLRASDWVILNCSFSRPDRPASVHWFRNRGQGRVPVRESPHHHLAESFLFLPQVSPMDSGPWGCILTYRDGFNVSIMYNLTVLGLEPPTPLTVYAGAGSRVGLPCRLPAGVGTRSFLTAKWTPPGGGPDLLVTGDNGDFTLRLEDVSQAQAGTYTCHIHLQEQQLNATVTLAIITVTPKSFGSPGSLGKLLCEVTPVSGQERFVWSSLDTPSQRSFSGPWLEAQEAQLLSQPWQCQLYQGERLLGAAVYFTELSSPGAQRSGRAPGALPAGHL
Procedure: Reagent preparation: ① Tag1-LAG3 protein: a protein solution with a concentration of 50 nM (20 µL with a final system concentration of 10 nM) was prepared using a diluent. ② Tag2-FGL1 protein: a protein solution with a concentration of 100 nM (20 µL with a final system concentration of 20 nM) was prepared using a diluent. ③ Anti-Tag1-Tb: a 100× stock solution was diluted with a detection buffer to a 1 × stock solution. ④ Anti-Tag2-XL665: a 100× stock solution was diluted with a detection buffer to a 1 × stock solution.
Assay step: (1) 2 µL of compound solution (with a concentration to be measured of 10×) was added to a 384-well opaque plate having a white background, 4 µL of Tag1-LAG3 protein and 4 µL of Tag2-FGL1 protein were added, respectively, and the plate was incubated at room temperature for 15 min; (2) Anti-Tag1-Tb and Anti-Tag2-XL665 were mixed at a ratio of 1:1 in advance, and 10 µL of mix solution was added to each well; (3) the plate was gently mixed, sealed, and incubated at room temperature for 1 h or overnight before detection.

[3] = HEPA1-6, 10 mg/kg po once a day
[4] = HEPA1-6, 20 mg/kg po once a day

CCCCCCOc1ccc2cc1-c1cc(ccc1OCCCCCC)C(=O)CCCCCC2=O [Compound 4]
Inhibition rate ([1]; HEPA1-6, 5 mg/kg po once a day): 24.72% | Tumor weight ([1]; HEPA1-6, 5 mg/kg po once a day): 0.510 ± 0.312 g | Inhibition rate [1, 3]: 52% | Tumor weight [1, 3]: 0.325 ± 0.256 g | Inhibition rate [1, 4]: 36.56% | Tumor weight [1, 4]: 0.430 ± 0.140 g

CCCCCCOc1ccc(C(=O)O)cc1-c1cc(C(=O)NCCCCNC(=O)C(F)(F)F)ccc1OCCCCCC [Compound 8]
pIC50 [2]: 5.00
